Active and inactive are the calls of the source. No cut-off for these calls is given here.
Key:
Rattus norvegicus [1] = species: Rattus norvegicus; experiment: Compound was tested in vitro for its ability to increase [Ca+2] in pancreatic acinar cells at a concentration of 0.01 mg/mL; Active; assay type: functional, cell-based
Rattus norvegicus [2] = species: Rattus norvegicus; experiment: Compound was tested in vitro for its ability to increase [Ca+2] in pancreatic acinar cells at a concentration of 0.01 mg/mL.; assay type: functional
Rattus norvegicus [3] = species: Rattus norvegicus; experiment: Compound was tested in vitro for its ability to increase the rate of [Ca+2] mobilization in pancreatic acinar cells; assay type: functional

CC/C=C\C/C=C\C/C=C\CCCCCCCC(=O)OC(COC(C)=O)COC(=O)CCCCCCCCCCCCCCC (centres undefined)
Increase in [Ca+2] (Rattus norvegicus [1]): Active

CCCCC/C=C\C/C=C\CCCCCCCC(=O)OC(COC(C)=O)COC(=O)CCCCCCCCCCCCCCC (centres undefined) [MOSEDIPIMOD]
Increase in [Ca+2] (Rattus norvegicus [2]): 84.9 nM
Rate of [Ca+2] increase (Rattus norvegicus [3]): 9.8 nM/min

CCCCCCCC/C=C\CCCCCCCC(=O)OC(COC(C)=O)COC(=O)CCCCCCCCCCCCCCC (centres undefined)
Increase in [Ca+2] (Rattus norvegicus [2]): 26.6 nM

CCCCC/C=C\C/C=C\C/C=C\C/C=C\CCCC(=O)OC(COC(C)=O)COC(=O)CCCCCCCCCCCCCCC (centres undefined)
Increase in [Ca+2] (Rattus norvegicus [2]): 32.8 nM

CC/C=C\C/C=C\C/C=C\C/C=C\C/C=C\C/C=C\CCC(=O)OC(COC(C)=O)COC(=O)CCCCCCCCCCCCCCC (centres undefined)
Increase in [Ca+2] (Rattus norvegicus [2]): 75.2 nM
Rate of [Ca+2] increase (Rattus norvegicus [3]): 26.7 nM/min

CCCCCCCC/C=C\CCCCCCCC(=O)OCC(COC(C)=O)OC(=O)CCCCCCCCCCCCCCC (centres undefined)
Increase in [Ca+2] (Rattus norvegicus [2]): 31.2 nM

CCCCCCCCCCCCCCCC(=O)OCC(COC(C)=O)OC(=O)[C@H]1C[C@@H]1c1ccccc1 (some centres undefined)
Increase in [Ca+2] (Rattus norvegicus [1]): Active
